Patent US20060063754A1, “Methods of treating a sleep disorder” (priority 2004, published 2006)
Read-outs that look alike come from different tables or passages of the source.

Assays:
[1] = molecular target: T1, human recombinant M1 muscarinic receptor expressed in CHO cells (Homo sapiens, UniProt P11229); conditions: reference compounds; read-out: Ki of reference compounds in M1 binding assay; cited from earlier work
T1 construct: purchased PerkinElmer, Inc., Wellesley, Mass; host or cells: CHO cells
T1 sequence (P11229 1-460): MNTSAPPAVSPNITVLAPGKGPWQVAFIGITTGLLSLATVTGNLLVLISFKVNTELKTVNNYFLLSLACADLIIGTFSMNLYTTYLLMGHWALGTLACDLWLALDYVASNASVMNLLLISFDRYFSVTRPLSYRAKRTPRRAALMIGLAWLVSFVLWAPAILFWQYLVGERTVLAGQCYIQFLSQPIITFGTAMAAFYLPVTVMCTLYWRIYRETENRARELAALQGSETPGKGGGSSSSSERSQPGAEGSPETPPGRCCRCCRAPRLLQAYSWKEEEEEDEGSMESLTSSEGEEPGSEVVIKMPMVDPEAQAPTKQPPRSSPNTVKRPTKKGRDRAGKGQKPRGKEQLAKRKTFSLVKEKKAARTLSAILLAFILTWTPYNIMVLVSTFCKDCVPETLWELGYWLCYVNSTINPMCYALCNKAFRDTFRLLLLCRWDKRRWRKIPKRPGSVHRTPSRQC

male Wistar rats = test: Sleep-wakefulness monitoring (SCORE-2000, EEG/EMG) in rats; format: in vivo, rat; conditions: oral bolus at CT-18, male Wistar rats
Description: Sleep-wakefulness, locomotor activity and body temperature are monitored in male Wistar rats treated with a test compound initially at a concentration of 10 mg/kg. Higher and lower doses are assayed for select compounds (e.g., as high as 45 mg/kg, and as low as necessary to establish a no-effect dose). Treatments are administered at CT-18, the peak of the activity dominated period (6 hours after lights-off), and produce soporific (sleep-inducing) effects characterized by increased non-REM sleep time, increased sleep continuity, but without evidence of REM sleep inhibition or rebound insomnia.
Sleep-wakefulness, locomotor activity and body temperature were monitored in vivo with certain of the disclosed sleep-inducing agents (e.g., Compounds 1 and 2) and other compounds described herein. Adult, male Wistar rats (250 g at time of surgery, Charles River Laboratories, Wilmington Mass.) were anesthetized (2% isoflourane in medical grade oxygen) and surgically prepared with a cranial implant to permit chronic electro-encephalogram (EEG) and electromyogram (EMG) recording. Body temperature and locomotor activity were monitored via a miniature transmitter (Mini-Mitter, Bend, Oreg.) surgically placed in the abdomen. The cranial implant consisted of stainless steel screws (two frontal (+3.2 AP from bregma, ±2.0 ML) and two occipital (−6.9 AP, ±5.5 ML)) for EEG recording. Two Teflon®-coated stainless steel wires were positioned under the nuchal trapezoid muscles for EMG recording. All leads were soldered to a miniature connector prior to surgery, and gas sterilized in ethylene oxide. The implant assembly was affixed to the skull with dental acrylic. A minimum of three weeks was allowed for surgical recovery.
Each rat was permanently housed in its own individual recording cage located within separate, ventilated compartments of custom-designed stainless steel cabinets. Each cage was enhanced with a filter-top riser and low-torque swivel-commutator. Food and water were available ad libitum. A 24-hr light-dark cycle (12 hours light, 12 hours dark) was maintained throughout the study. Animals were undisturbed for at least 48 hours before and after treatments.
Sleep and wakefulness were determined using “SCORE-2000™” (Hypnion, Worcester, Mass.)—an internet-based sleep-wake and physiological monitoring system. The system monitored amplified EEG (bandpass 1-30 Hz), integrated EMG (bandpass 10-100 Hz), body temperature and non-specific locomotor activity (LMA) via telemetry, and drinking activity, continuously and simultaneously. Arousal states were classified on-line as non-REM (NREM) sleep, REM sleep, wake, or theta-dominated wake every 10 seconds. Total drinking and locomotor activity counts, and body temperature were quantitated and recorded each minute, using EEG feature extraction and pattern-matching algorithms. […] The classification algorithm used individually-taught EEG-arousal-state templates, plus EMG criteria to differentiate REM sleep from theta-dominated wakefulness, plus behavior-dependent contextual rules (e.g., if the animal was drinking, it is awake). Drinking and locomotor activity intensity (LMA) were recorded every 10 seconds, while body temperature was recorded each minute. Locomotor activity was detected by a telemetry receiver (Mini-Mitter) beneath the cage. Telemetry measures (LMA and body temperature) were not part of the scoring algorithm; thus, sleep-scoring and telemetry data were independent measures.
Compounds were administered at CT-18, the peak of the activity-dominated period, sufficient time was allowed to view the time course of the treatment effect before lights-on (6 hours post-treatment). Compounds were suspended in sterile 0.25% or 0.5% methylcellulose (1-2 ml/kg). Treatments were administered orally as a bolus.
A parallel group study design was employed. […]

H1 histamine receptor = molecular target: T2, H1 histamine receptor (Bos taurus, UniProt P30546); test: H1 histamine receptor competitive binding assay ([3H]pyrilamine); design: species or system bovine
T2 construct: the receptors were obtained from bovine cerebellar membrane tissue; from tissue; host or cells: bovine cerebellar membranes

[2] = molecular target: T3, human recombinant M2 muscarinic receptor expressed in CHO cells (Homo sapiens, UniProt P08172); test: M2 muscarinic receptor binding assay
T3 construct: purchased PerkinElmer, Inc., Wellesley, Mass; host or cells: CHO cells
T3 sequence (P08172 1-466): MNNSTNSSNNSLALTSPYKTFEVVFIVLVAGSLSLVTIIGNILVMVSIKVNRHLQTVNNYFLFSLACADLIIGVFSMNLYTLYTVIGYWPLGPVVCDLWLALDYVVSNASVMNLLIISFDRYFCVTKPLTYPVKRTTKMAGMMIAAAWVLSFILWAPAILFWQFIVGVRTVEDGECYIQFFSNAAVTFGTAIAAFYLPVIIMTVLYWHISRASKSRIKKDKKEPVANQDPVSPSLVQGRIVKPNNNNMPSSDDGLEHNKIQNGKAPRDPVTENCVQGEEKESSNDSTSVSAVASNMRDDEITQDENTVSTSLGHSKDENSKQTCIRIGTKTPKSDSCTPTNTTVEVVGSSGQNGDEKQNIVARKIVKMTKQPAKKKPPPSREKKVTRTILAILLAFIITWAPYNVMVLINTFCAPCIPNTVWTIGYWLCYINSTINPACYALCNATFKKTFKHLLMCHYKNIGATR

alpha 1 receptor = alpha 1 receptor binding assay; conditions: read-out: Ki Alpha1
Description: (§1) Binding assays were performed using Compound 1 and 2 in competitive binding assays with known standards for the H1 histamine receptor, and the M1, M2, and M3 muscarinic receptors, alpha 1 and alpha 2 receptors, and D1 and D2 receptors.

[3] = molecular target: T4, human recombinant M3 muscarinic receptor expressed in CHO cells (Homo sapiens, UniProt P20309); test: M3 muscarinic receptor binding assay
T4 construct: purchased PerkinElmer, Inc., Wellesley, Mass; host or cells: CHO cells

[4] = molecular target: Dopamine, D1 (human recombinant) (Homo sapiens, UniProt P21728); test: Dopamine D1 binding assay
Description: Dopamine, D1 (human recombinant) binding assay was performed according to published procedures. See, e.g., Jarvie, et al. J. Recept Res., 13(1-4): 573-90 (1993); and Billard, et al. Life Sciences, 35(18): 1885-93 (1984), with modifications

D2 receptor = D2 receptor (Homo sapiens, UniProt P14416); test: Dopamine D2 binding assay
alpha 2 receptor = alpha 2 receptor binding assay; conditions: read-out: Ki Alpha2
Description: as §1

hERG channel = hERG channel (Homo sapiens, UniProt Q12809); test: hERG channel current block, whole cell patch clamp in HEK293 cells; format: cell-based; conditions: HEK293 cells expressing hERG, room temperature
Description: In the hERG assay, hERG channels are expressed in a human embryonic kidney cell line (HEK293) that lacks endogenous IKr. […] (See, Rampe 1997).
In one embodiment of the hERG assay, the positive control (i.e., reference compound) is terfenadine (Sigma, St. Louis Mo.), which has been shown, at a concentration of 60 nM, to block hERG current by approximately 75%. Test compounds are delivered in HEPES-buffered physiological saline (HB-PS)+0.1% dimethyl sulfoxide (DMSO). Each test compound is applied at a concentration of 10 μM to the HEK293 cells expressing hERG (n≧3, where n=the number of cells). Cells are exposed to the test compound for the time necessary to reach steady-state block, but not longer than 10 minutes. The positive control ([…] terfenadine) is applied to two cells (n≧2).
The hERG-exposed cells are then transferred to the recording chamber and superfused with HB-PS solution. The pipette solution for whole cell recordings includes potassium aspartate (130 mM), MgCl2 (5 mM), EGTA (5 mM), ATP (4 mM), and HEPES (10 mM) at a pH adjusted to 7.2 with KOH. Onset and steady state block of hERG current due to the test compound are measured using a pulse pattern with fixed amplitudes (depolarization: +20 mV for 2 seconds; repolarization: −50 mV for 2 seconds), repeated at 10 second intervals, from a holding potential of −80 mV. Peak tail current is measured during the 2 second step to −50 mV. A steady state is maintained for at least 30 seconds before applying the test compound or positive control compound. Peak tail currents are measured until a new steady state is achieved.
The in vitro effects of the disclosed sleep-inducing agents on the hERG (human ether-à-go-go-related gene) channel current (IKr, the rapidly activating, delayed rectifier cardiac potassium current) were determined by ChanTest (Cleveland, Ohio) according to Standard Operating Procedures of ChanTest.
All chemicals used were purchased from Sigma (St. Louis, Mo.) unless otherwise noted and were of ACS reagent grade purity or higher. […]

[5] = molecular target: T1, human recombinant M1 muscarinic receptor expressed in CHO cells; test: M1 muscarinic receptor binding assay ([3H]-scopolamine, N-methyl chloride)

Chain of hERG channel (Q12809 whole entry): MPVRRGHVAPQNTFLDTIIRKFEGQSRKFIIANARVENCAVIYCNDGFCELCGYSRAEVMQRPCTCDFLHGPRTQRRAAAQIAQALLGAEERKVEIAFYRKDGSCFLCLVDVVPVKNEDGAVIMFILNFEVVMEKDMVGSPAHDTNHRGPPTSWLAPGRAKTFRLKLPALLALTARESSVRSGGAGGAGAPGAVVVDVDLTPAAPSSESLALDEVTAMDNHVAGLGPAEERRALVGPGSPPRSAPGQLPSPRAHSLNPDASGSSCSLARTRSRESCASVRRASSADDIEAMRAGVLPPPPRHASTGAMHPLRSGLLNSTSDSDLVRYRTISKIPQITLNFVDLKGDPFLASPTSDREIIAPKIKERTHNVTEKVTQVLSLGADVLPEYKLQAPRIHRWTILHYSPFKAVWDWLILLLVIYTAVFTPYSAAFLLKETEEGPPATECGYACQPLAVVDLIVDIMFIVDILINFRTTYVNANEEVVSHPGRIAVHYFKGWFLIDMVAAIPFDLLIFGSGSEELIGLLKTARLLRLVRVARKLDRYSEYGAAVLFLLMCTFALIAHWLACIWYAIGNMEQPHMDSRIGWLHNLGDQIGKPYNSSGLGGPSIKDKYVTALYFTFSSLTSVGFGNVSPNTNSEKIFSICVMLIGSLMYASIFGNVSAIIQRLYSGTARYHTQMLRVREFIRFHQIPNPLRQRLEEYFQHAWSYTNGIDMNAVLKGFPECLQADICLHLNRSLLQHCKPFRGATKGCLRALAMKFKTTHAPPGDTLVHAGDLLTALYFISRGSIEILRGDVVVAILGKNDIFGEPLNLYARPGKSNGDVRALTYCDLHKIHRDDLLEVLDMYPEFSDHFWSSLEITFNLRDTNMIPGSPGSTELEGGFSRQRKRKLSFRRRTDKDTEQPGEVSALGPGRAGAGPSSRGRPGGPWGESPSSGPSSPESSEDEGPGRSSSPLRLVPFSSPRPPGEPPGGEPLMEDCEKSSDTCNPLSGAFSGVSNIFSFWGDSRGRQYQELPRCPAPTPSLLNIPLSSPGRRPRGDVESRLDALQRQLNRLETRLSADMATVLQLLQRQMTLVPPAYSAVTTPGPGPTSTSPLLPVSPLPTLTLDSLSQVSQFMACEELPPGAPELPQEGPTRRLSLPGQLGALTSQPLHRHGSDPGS
T4 sequence (P20309 whole entry): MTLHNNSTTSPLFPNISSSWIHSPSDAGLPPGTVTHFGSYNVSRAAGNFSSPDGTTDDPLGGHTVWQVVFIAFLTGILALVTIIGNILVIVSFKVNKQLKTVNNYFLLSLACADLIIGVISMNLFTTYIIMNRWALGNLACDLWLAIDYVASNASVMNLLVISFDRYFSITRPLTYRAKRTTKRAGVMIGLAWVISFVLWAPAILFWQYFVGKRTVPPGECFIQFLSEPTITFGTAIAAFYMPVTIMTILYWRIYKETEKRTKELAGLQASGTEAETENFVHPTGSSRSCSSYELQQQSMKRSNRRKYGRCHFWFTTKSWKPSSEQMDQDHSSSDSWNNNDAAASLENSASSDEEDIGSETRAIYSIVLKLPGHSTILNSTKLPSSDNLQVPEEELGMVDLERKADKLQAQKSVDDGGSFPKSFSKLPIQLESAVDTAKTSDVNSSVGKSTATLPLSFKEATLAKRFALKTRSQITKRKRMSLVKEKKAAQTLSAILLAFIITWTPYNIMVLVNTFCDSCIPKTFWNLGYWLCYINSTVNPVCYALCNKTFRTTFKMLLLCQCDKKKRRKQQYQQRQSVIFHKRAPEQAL
Chain of Dopamine, D1 (human recombinant) (P21728 whole entry): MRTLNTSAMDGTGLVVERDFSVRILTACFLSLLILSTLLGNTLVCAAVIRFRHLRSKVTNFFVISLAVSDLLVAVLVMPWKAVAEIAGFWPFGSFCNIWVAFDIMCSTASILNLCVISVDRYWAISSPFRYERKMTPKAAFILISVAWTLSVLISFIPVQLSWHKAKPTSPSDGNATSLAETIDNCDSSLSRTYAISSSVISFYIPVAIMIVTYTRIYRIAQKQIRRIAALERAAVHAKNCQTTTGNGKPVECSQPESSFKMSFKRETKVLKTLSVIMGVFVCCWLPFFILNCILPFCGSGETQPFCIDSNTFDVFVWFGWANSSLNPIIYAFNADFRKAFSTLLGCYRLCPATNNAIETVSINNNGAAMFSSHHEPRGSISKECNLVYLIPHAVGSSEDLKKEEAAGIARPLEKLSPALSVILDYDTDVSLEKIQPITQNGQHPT
T2 sequence (P30546 whole entry): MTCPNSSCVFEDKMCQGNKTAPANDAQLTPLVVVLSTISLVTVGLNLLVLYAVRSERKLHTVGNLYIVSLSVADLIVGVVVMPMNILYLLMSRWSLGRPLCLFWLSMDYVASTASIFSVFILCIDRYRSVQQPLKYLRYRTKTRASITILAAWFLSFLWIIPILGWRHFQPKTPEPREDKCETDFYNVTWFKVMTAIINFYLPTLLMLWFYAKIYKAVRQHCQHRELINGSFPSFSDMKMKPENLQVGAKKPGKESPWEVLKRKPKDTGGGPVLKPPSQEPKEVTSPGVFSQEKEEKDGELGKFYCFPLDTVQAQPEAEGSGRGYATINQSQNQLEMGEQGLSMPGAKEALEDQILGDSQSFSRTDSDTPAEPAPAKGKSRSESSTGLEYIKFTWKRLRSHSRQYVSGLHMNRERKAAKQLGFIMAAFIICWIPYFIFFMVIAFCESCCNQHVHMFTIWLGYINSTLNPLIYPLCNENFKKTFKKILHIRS
Chain of D2 receptor (P14416 whole entry): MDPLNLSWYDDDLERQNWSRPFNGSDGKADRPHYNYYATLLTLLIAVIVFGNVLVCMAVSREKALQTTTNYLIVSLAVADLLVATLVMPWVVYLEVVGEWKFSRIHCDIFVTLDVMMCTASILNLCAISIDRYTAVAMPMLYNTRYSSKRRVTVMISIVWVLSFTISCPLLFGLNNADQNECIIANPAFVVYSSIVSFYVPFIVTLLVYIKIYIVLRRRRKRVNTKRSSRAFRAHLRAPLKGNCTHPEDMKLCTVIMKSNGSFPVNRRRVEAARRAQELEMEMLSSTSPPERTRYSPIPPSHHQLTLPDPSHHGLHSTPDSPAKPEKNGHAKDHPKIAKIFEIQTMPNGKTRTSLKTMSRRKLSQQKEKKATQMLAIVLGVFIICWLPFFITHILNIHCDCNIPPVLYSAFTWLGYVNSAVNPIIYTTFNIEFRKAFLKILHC

Ki (H1 histamine receptor) [µM]	Ki [2] [µM]	Ki (alpha 1 receptor) [µM]	Ki [3] [µM]	Ki [4] [µM]	Ki (D2 receptor) [µM]	Ki (alpha 2 receptor) [µM]	Ki [5] [µM]	Structure (SMILES)	Ki [1] [µM]	LUSB (longest uninterrupted sleep bout) (male Wistar rats; dose 10 mg/kg) [min]	NREM (male Wistar rats; dose 10 mg/kg) [min]	hERG at 10 micromolar (% blocking of the hERG channel) (hERG channel) [%]	LUSB (longest uninterrupted sleep bout) (male Wistar rats; dose 3 mg/kg) [min]
								C[N+]1(C)CCC(OC(=O)C(c2ccccc2)c2ccccc2)CC1 [4-DAMP methiodide]	0.00027				
0.041	> 10	> 10	> 10	1.13	> 10	> 10	> 10	O=C(O)CCN1CCN(C2=Nc3ccccc3Oc3ccccc32)CC1 [Compound 1]		13.2 ± 3.3	22 ± 6	0.70	
0.0542	> 10	3.27	> 10	6.24	> 10	> 10	> 10	O=C(O)CCCN1CCN(C2=Nc3ccccc3Oc3ccccc32)CC1 [Compound 2]		7.2 ± 2.0	38 ± 6	2.60	3.8 ± 2.2
								O=C(O)CCN1CCN(C2=Nc3ccccc3Sc3ccccc32)CC1 [Compound 3]		5 ± 2.0	43 ± 6	0.80	6 ± 1.9
